Data on twelve compounds can be found in US5919799A, “Imidazothiazole compound” (Nikken Chemicals Co., Ltd., priority 1995, dated 1999).

Counter-ions that a name gives are not always drawn. A value given as a limit tells only on which side of the number the result lay.

For series [1], the system named is VJ-300 cells (multidrug resistant clones of KB cells). The series can be described thus: In vitro suppression of proliferation of VJ-300 cells by co-administration with vincristine. The class given is cell-based, Human. The method, then:
As the incubation solution, an Eagle MEM medium (made by Nissui Seiyakusha) containing 10% fetal calf serum (made by Flow Laboratories Co.) and 0.292 mg/ml L-glutamine (made by Flow Laboratories Co.) was used. The action overcoming resistance to an anti-neoplastic agent and effect in enforcing the effect of an anti-neoplastic agent obtained through co-administration of the anti-neoplastic agent doxorubicin (adriamycin, ADM) and the test compounds were tested as follows:
The test cells were suspended in the incubation medium and adjusted to a cell density of about 200 cells/ml. 2 ml portions of the cell suspension were placed in petri dishes and incubated in a carbon dioxide gas incubator (5% CO2, 95% air) at 37° C. for 24 hours. Next, predetermined concentrations of aqueous ADM solutions and dimethyl sulfoxide (DMSO) solutions of predetermined concentrations of the test compounds were added into 5 to 10 μl portions, then incubation was continued for 7 days. After the end of the incubation, the samples were fixed by methanol, Giemsa staining was performed, the number of colonies in each dish was counted, and a volume reaction curve was prepared. This was used to calculate the ADM concentration at a 50% cell survival rate (LD50) and judge the action overcoming resistance to an anti-neoplastic agent and effect in enhancing the effect of an anti-neoplastic agent.
The LD50 concentration of ADM in the ADM control group for KB cells was shown as the resistance degree "1" and the other LD50 concentrations were indexed against this to calculate the resistance degrees. In Table 2, ADM alone (control) is the group administered ADM alone, ADM+Compound 1 is the group co-administered ADM and Compound 1 (1 μg /ml) and so on down to ADM+Compound 19 which is the group co-administered ADM and Compound 19 (1 μg /ml).
A volume reaction curve was prepared and the resistance calculated. In the Tables, VCR alone (control) is the group administered VCR alone, VCR+Compound 1 is the group co-administered VCR and Compound 1(1 μg /ml) and so on down to VCR+Compound 16 which is the group co-administered VCR and Compound 16 (1 μg/ml).

Series [2] has as its system VCR resistant murine leukemia (P388/VCR) cells. The series can be described thus: In vivo effect of overcoming resistance with etoposide (VP-16) in P388/VCR bearing mice (intravenous). Set-up: species or system CDF1 male mice. The note with it: i.v., five days; for Rate of prolongation of life (T/C %): vs non-administered control. As for the experimental part:
(b) Separately, groups of six CDF1 male mice were intravenously given transplants of 1.2×10^5 VCR resistant murine leukemia (P388/VCR) cells. The compound of the present invention (20 or 40 mg/kg) was dissolved in 0.01N hydrochloric acid. Etoposide (VP-16, 3 mg/kg) was dissolved in a physiological saline solution. These were administered intravenously for five days and the days of survival were found. In the same way as (a), the rate of prolongation of life with respect to the control (T/C) and the effect in overcoming the resistance to an anti-neoplastic agent (T/V) were found. In Table 6, the control is the non-administered group, VP-16 alone is the group administered VP-16 (3 mg/kg) and VP-16+Compound 5 is the group co-administered VP-16 (3 mg/kg) and Compound 5 (40 mg/kg) and so on to VP-16+Compound 16 which is the group co-administered VP-16 (3 mg/kg) and Compound 16 (40 mg/kg).

The test system of series [3] is VCR resistant murine leukemic (P388/VCR) cells. The series can be described thus: In vivo effect of overcoming resistance to vincristine in VCR resistant murine leukemia cell bearing mice (intraperitoneal). Set-up: species or system CDF1 male mice. The note with it: i.p., 5 days; for Rate of prolongation of life (T/C %): vs non-administered control. The method, then: (a) 10^6 VCR resistant murine leukemic (P388/VCR) cells were transplanted intraperitoneally to groups of six CDF1 male mice. The compound of the present invention (10 or 100 mg/kg) was suspended in 0.5% sodium carboxymethyl cellulose containing 0.1% Tween 80, while the VCR (100 μg/kg) was dissolved in physiological saline. These were each administered intraperitoneally over 5 days and the mice observed to find the days of survival and the rate of prolongation of life with respect to the control (T/C). The effect in overcoming resistance to an anti-neoplastic agent (T/V) was found from the following formula:
Effect in overcoming resistance to anti-neoplastic agent (T/V%)=(Rate of prolongation of life when co-administering VCR and compound of present invention (T/C%))/(Rate of prolongation of life by VCR alone
In Table 5, "Control" is the non-administered group, VCR alone is the group administered just VCR (100 μg /kg), VCR+Compound 1 is the group co-administered VCR (100 μg /kg) and Compound 1 (100 mg/kg) and so on to VCR+Compound 14* which is the group co-administered VCR (100 μg /kg) and Compound 14 (10 mg/kg).

Series [4] can be described thus: Acute toxicity test (a), intraperitoneal, three animals per group. Conditions: mouse, in vivo, ip, ICR male mice, up to 7 days after administration. The text has this:
(a) Animals used: ICR male mice (Charles River Japan), 7 to 8 weeks old, were used three to a group.
Test method: The compound of the present invention was suspended in 0.5% sodium carboxymethyl cellulose(CMC-Na) containing 0.1% Tween 80. […] The survival of the animals was examined up to 7 days after administration, then the Van Der Wearder area method was used to calculate the LD50 value.

The mark [5] stands for this setting: Table 4, co-administered VCR and test compound (1 μg/ml), relative to VCR alone in KB = 1.
Where [6] appears, read: VP-16 (3 mg/kg) + compound (40 mg/kg).
Setting [7] is: VP-16 (3 mg/kg) + compound (40 mg/kg), vs VP-16 alone.
Setting [8] is: Table 3, co-administered VCR and test compound (1 μg/ml), relative to VCR alone in KB = 1.
Where [9] appears, read: VCR (100 μg/kg) + compound (100 mg/kg).
[10] abbreviates: VCR (100 μg/kg) + compound (100 mg/kg), vs VCR alone.
[11] abbreviates: VP-16 (3 mg/kg) + compound (20 mg/kg).
Setting [12] is: VCR (100 μg/kg) + compound (10 mg/kg).

In the case of `CN1CCCC(C(=O)NN=Cc2c(-c3ccc(-c4ccccc4)cc3)nc3sc4c(n23)CCCC4)C1` (stereo not shown) [Compound 11, 5,6,7,8-tetrahydro-2-biphenyl-3-[N-methyl-3-piperidylcarbonylaminoiminomethyl]imidazo[2,1-b]benzothiazole hydrochloride], the “Resistance with VCR, VJ-300 (resistance degree)” value (from here on “Resistance with VCR”) in series [1] (setting [5]) was found to be 1.3. In addition, in series [2] (setting [6]), the Days of survival is on record as 13.0 days and the “Rate of prolongation of life (T/C %)” value was found to be 126%. Further, the “Effect overcoming resistance (T/V %)” value in series [2] (setting [7]) was determined as 116%.

Regarding `O=C(NN=Cc1c(-c2ccccc2)nc2sc3c(n12)CCCC3)C1CCCN(Cc2ccccc2)C1` (stereo not shown) [Compound 9, 5,6,7,8-tetrahydro-2-phenyl-3-[N-benzyl-3-piperidylcarbonylaminoiminomethyl]imidazo[2,1-b]benzothiazole], the “Resistance with VCR” value in series [1] (setting [5]) was found to be 2.5.

As for `O=C(NN=Cc1c(-c2cccc([N+](=O)[O-])c2)nc2sc3c(n12)CCCC3)c1cccnc1` [Compound 3, 5,6,7,8-tetrahydro-2-(3-nitrophenyl)-3-(3-pyridylcarbonylaminoiminomethyl)imidazo[2,1-b]benzothiazole], the “Resistance with VCR” value in series [1] (setting [8]) is 2.7.

With `CC[C@]1(O)C[C@H]2CN(CCc3c([nH]c4ccccc34)[C@@](C(=O)OC)(c3cc4c(cc3OC)N(C=O)[C@H]3[C@@](O)(C(=O)OC)[C@H](OC(C)=O)[C@]5(CC)C=CCN6CC[C@]43[C@@H]65)C2)C1` [VCR, vincristine, reference compound], the “Resistance with VCR” value in series [1] (Table 3, VCR alone (Control), relative to KB = 1) came out at 306.6; in series [1] (Table 4, VCR alone (Control), relative to KB = 1) it was 843.1. The Days of survival in series [3] (VCR alone (100 μg/kg)) is 11.08 days. Further, the “Effect overcoming resistance (T/V %)” value in series [3] (VCR alone (100 μg/kg), reference = 100) is 100%. For the same compound, the “Rate of prolongation of life (T/C %)” value in series [3] (VCR alone (100 μg/kg)) stood at 106%.

Consider `CC(C)N1CCCC(C(=O)NN=Cc2c(-c3ccccc3)nc3sc4c(n23)CCCC4)C1` (stereo not shown) [Compound 13, 5,6,7,8-tetrahydro-2-phenyl-3-[N-isopropyl-3-piperidylcarbonylaminoiminomethyl]imidazo[2,1-b]benzothiazole hydrochloride], for which the “Resistance with VCR” value in series [1] (setting [5]) amounted to 2.0.

For the compound `COc1cc([C@@H]2c3cc4c(cc3[C@@H](O[C@@H]3O[C@@H]5CO[C@@H](C)O[C@H]5[C@H](O)[C@H]3O)[C@H]3COC(=O)[C@H]23)OCO4)cc(OC)c1O` [VP-16, Etoposide, reference compound], in series [2] (VP-16 alone (3 mg/kg)), the Days of survival was 11.2 days and the “Rate of prolongation of life (T/C %)” value is 109%. The “Effect overcoming resistance (T/V %)” value in series [2] (VP-16 alone (3 mg/kg), reference = 100) is on record as 100%.

For the compound `O=C(NN=Cc1c(-c2ccccc2)nc2sc3c(n12)CCCC3)c1cccnc1` [Compound 1, 5,6,7,8-tetrahydro-2-phenyl-3-(3-pyridylcarbonylaminoiminomethyl)imidazo[2,1-b]benzothiazole], in series [1] (setting [8]), the “Resistance with VCR” value came out at 3.3. Also, in series [3] (setting [9]), the Days of survival is on record as 12.33 days and the “Rate of prolongation of life (T/C %)” value worked out at 118%. In addition, the “Effect overcoming resistance (T/V %)” value in series [3] (setting [10]) is recorded as 111%. Further, the LD50 – broadly, the dose at which mortality reaches 50% – at 168 h in series [4] is not below 2000 mg/kg.

For `CN1CCCC(C(=O)NN=Cc2c(-c3ccc([N+](=O)[O-])cc3)nc3sc4c(n23)CCCC4)C1` (stereo not shown) [Compound 10, 5,6,7,8-tetrahydro-2-(4-nitrophenyl)-3-[N-methyl-3-piperidylcarbonylaminoiminomethyl]imidazo[2,1-b]benzothiazole hydrochloride], the “Resistance with VCR” value in series [1] (setting [5]) came out at 8.7. Further, in series [2] (setting [11]), the Days of survival was 12.0 days and the “Rate of prolongation of life (T/C %)” value was 117%. Moreover, the “Effect overcoming resistance (T/V %)” value in series [2] (VP-16 (3 mg/kg) + compound (20 mg/kg), vs VP-16 alone) was determined as 107%.

`COc1cc(-c2nc3sc4c(n3c2C=NNC(=O)c2cccnc2)CCCC4)cc(OC)c1OC` [Compound 4, 5,6,7,8-tetrahydro-2-(3,4,5-trimethoxyphenyl)-3-(3-pyridylcarbonylaminoiminomethyl)imidazo[2,1-b]benzothiazole]: in series [1] (setting [8]), the “Resistance with VCR” value is 20.9. In series [3] (setting [9]), the Days of survival turned out to be 13.28 days and the “Rate of prolongation of life (T/C %)” value was determined as 127%. The “Effect overcoming resistance (T/V %)” value in series [3] (setting [10]) turned out to be 120%.

`CCCN1CCCC(C(=O)NN=Cc2c(-c3ccccc3)nc3sc4ccccc4n23)C1` (stereo not shown) [Compound 16, 2-phenyl-3-[N-propyl-3-piperidylcarbonylaminoimino-methyl]imidazo[2,1-b]benzothiazole hydrochloride]: the “Resistance with VCR” value in series [1] (setting [5]) was determined as 2.6. In series [2] (setting [6]), the Days of survival was 12.7 days and the “Rate of prolongation of life (T/C %)” value is 123%. Also, the “Effect overcoming resistance (T/V %)” value in series [2] (setting [7]) came to 113%.

With `O=C(NN=Cc1c(-c2ccccc2)nc2sc3ccccc3n12)c1cccnc1` [Compound 14, 2-phenyl-3-[3-pyridylcarbonylaminoiminomethyl]imidazo[2,1-b]benzothiazole], the “Resistance with VCR” value in series [1] (setting [5]) was found to be 4.0. Also, in series [3] (setting [12]), the Days of survival was 13.67 days and the “Rate of prolongation of life (T/C %)” value is 131%. For the same compound, in series [3] (VCR (100 μg/kg) + compound (10 mg/kg), vs VCR alone), the “Effect overcoming resistance (T/V %)” value was 124%.

In the case of `O=C(NN=Cc1c(-c2ccccc2)nc2sc3c(n12)CCCC3)c1ccccc1` [Compound 8, 5,6,7,8-tetrahydro-2-phenyl-3-(benzoylaminoiminomethyl)imidazo[2,1-b]benzothiazole], the “Resistance with VCR” value in series [1] (setting [8]) amounted to 3.5. For the same compound, in series [3] (setting [9]), the Days of survival was determined as 12.00 days and the “Rate of prolongation of life (T/C %)” value is 115%. Besides, the “Effect overcoming resistance (T/V %)” value in series [3] (setting [10]) is 108%.
